How the values were obtained:
TLR4 = target: T1, TLR4 (Mus musculus, UniProt Q9JHF9+Q9QUK6); assay: RAW 264.7 nitric oxide TLR selectivity assay (LPS); assay type: cell-based; settings: 10 ng/mL LPS
T1 construct: RAW 264.7 Cells Nitric Oxide TLR Selectivity Assay; endogenous in cells; host or cells: RAW 264.7
T1 sequence (Q9QUK6 26-835): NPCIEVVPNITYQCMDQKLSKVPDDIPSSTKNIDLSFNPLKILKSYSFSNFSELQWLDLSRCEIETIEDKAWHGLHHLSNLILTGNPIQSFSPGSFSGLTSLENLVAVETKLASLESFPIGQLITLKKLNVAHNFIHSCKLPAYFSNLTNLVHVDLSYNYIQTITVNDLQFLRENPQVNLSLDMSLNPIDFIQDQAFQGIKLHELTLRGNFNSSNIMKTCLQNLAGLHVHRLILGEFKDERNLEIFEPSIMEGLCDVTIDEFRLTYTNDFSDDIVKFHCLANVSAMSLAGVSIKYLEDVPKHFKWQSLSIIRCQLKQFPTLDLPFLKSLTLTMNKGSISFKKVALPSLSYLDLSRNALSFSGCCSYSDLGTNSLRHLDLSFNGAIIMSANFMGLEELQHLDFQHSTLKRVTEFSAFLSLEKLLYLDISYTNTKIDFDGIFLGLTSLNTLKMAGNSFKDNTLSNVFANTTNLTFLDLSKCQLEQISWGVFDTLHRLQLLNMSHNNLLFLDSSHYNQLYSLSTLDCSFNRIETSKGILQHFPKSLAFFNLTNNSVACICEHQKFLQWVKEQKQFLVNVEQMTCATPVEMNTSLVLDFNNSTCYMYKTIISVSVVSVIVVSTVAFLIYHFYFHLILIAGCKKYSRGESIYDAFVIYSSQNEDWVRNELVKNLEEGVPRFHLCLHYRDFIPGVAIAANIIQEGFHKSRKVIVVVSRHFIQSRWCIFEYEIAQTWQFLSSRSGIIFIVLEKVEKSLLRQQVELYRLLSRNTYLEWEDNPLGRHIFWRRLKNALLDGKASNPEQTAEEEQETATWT
T1 sequence (Q9JHF9 19-160): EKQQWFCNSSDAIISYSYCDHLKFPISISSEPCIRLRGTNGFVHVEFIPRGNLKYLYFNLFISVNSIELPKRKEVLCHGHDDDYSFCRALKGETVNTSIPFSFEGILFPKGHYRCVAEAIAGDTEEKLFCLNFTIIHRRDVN
Method: (§1) RAW 264.7 (Mouse leukaemic monocyte macrophage cell line) cells were grown in RPMI 1640 medium, supplemented with 10% FBS, penicillin (100 U/mL) and streptomycin ([…]). RAW cells were then planted in 96-well plates at 80,000 cells per well and grown for 24 h in the media descried previously at 37° C. in a 5% CO2 humidified incubator. After 24 h, non-adherent cells and media were removed and replaced with fresh unsupplemented RPMI 1640 medium. The adherent macrophages were treated with Pam3CSK4 (CAS No. 112208-00-1; a synthetic triacylated lipopeptide (LP) that mimics the acylated amino terminus of bacterial LPs) (200 ng/mL) (Invivogen, USA), an agonist of TLR1/2, and then added different concentrates of potential inhibitor. Two rows were only treated with Pam3CSK4 as control. […] The reaction was quenched by addition of 5 μL of a 3 M aqueous NaOH solution and the plate was read on Beckman Coulter DTX880 reader (Beckman Coulter, Calif., USA) with excitation at 365 nm and emission at 450 nm. The nitrite (a stable metabolite of nitric oxide) concentration was determined from a nitrite standard curve. The inhibition rate (%) of NO release was determined using the following formula: Inhibition (%)=[Pam3CSK4(OD450) […]]/[Pam3CSK4 (OD450)−Control (OD450)]×100. The IC50 values for both inhibition and cytotoxicity were determined graphically using software Origin v7.5. […]

TLR3 = target: T2, TLR3 (Mus musculus, UniProt Q99MB1); assay: RAW 264.7 nitric oxide TLR selectivity assay (Poly (I:C)); assay type: cell-based; settings: 15 μg/mL Poly (I:C)
T2 construct: RAW 264.7 Cells Nitric Oxide TLR Selectivity Assay; endogenous in cells; host or cells: RAW 264.7
T2 sequence (Q99MB1 26-905): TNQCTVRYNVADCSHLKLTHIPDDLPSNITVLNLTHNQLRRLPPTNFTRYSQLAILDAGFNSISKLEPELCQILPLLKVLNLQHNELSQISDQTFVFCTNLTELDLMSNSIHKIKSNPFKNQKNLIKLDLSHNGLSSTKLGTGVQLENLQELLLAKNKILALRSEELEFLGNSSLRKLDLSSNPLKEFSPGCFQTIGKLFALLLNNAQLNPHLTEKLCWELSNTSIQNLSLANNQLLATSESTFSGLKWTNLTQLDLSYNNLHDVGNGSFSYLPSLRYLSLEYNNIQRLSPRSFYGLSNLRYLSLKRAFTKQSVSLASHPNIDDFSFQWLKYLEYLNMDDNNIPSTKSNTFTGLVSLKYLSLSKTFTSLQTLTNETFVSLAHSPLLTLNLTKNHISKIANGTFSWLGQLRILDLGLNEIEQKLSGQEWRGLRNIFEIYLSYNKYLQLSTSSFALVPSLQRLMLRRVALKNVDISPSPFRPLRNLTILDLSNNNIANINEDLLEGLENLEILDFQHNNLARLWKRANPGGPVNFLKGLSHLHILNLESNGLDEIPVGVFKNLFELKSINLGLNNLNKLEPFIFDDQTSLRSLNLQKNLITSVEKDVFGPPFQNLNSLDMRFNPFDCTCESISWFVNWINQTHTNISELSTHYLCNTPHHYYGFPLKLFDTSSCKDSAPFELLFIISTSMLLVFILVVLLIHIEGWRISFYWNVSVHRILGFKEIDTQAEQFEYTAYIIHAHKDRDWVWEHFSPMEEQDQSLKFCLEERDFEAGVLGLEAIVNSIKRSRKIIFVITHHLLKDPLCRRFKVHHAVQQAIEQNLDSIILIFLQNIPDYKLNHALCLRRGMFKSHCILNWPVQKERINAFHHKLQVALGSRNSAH
Method: as §1

inhibition of TLR4 signaling (TLR4; 3 μM compound)	inhibition of TLR3 signaling (TLR3; 3 μM compound)	inhibition of TLR4 signaling (TLR4; 0.5 μM compound)	inhibition of TLR3 signaling (TLR3; 0.5 μM compound)	SMILES
no other homologous TLRs	no other homologous TLRs	–	–	O=c1c(O)cccc2cc(O)c(O)c(O)c12 [NCI35676, purpurogallin, reference compound]
–	–	without affecting other TLRs	without affecting other TLRs	CCCCCCOC(=O)c1cc(O)c(=O)c2c(O)c(O)c(OC)cc2c1 [compound 17, Hexyl 3,4,6-trihydroxy-2-methoxy-5-oxo-5H-benzo[7]annulene-8-carboxylate]

Reference: patent publication US9517993B2, “Antagonists of the toll-like receptor 1/2 complex” (THE REGENTS OF THE UNIVERSITY OF COLORADO, a body corporate, priority 2012, dated 2016)
